Test results published in PubChem BioAssay (NCI).
Where “and” joins values, the source holds several entries; their conditions need not be identical. Equal entries are not always repeated.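 Grown in 96-well plates, cells were treated for 48 hours with each compound at five concentrations. Insufficient inhibition: endpoint recorded as highest concentration tested. At the GI50, growth is halved. Definition used: TGI = concentration required for complete inhibition of growth.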

Tests used:
Experiment in all cases: inhibition of tumour cell growth, NCI panel, 48 h
[1] = tested on: HCT-15 colon
[2] = tested on: U251 CNS
[3] = tested on: COLO 205 colon
[4] = tested on: ACHN renal
[5] = tested on: SN12C renal
[6] = tested on: HCC-2998 colon
[7] = tested on: SW-620 colon
[8] = tested on: A498 renal
[9] = tested on: CAKI-1 renal
[10] = tested on: LOX IMVI melanoma

## CCCCCCCCCCCCCC[n+]1ccccc1
[1]
  GI50: 1.9 µM
  TGI: 13.2 µM
[2]
  GI50: 0.426 µM
  TGI: 1.77 µM
[3]
  GI50: 0.614 µM
  TGI: 2.12 µM
[4]
  GI50: 1.27 µM
  TGI: 6.18 µM
[5]
  GI50: 0.926 µM
  TGI: 2.5 µM
[6]
  GI50: 0.877 µM
  TGI: 2.31 µM
[7]
  GI50: 0.779 µM
  TGI: 2.59 µM
[8]
  GI50: 0.717 µM
  TGI: 3.57 µM
[9]
  GI50: 0.833 µM
  TGI: 5.43 µM

## O=c1cc(-c2ccccc2)[nH]c2ncccc12
[4]
  TGI: > 100 µM
[6]
  TGI: > 42 µM
[7]
  TGI: > 100 µM
[8]
  TGI: > 100 µM
[10]
  TGI: > 100 µM
[9]
  TGI: > 100 µM

## Cc1cc(Cl)nc2ccc(Cc3ccc4nc(Cl)cc(C)c4c3)cc12
[1]
  TGI: > 100 µM
[2]
  TGI: 79.3 µM
[3]
  TGI: > 100 µM
[4]
  TGI: 70.8 µM
[5]
  TGI: > 100 µM
[7]
  TGI: > 100 µM
[8]
  TGI: 69.1 µM
[10]
  TGI: > 100 µM
[9]
  TGI: > 100 µM

## [O-]/N=[N+](/[O-])C1CCCCC1=[N+]1CCOCC1 (centres undefined)
[2]
  TGI: > 100 µM
[3]
  TGI: > 100 µM
[4]
  TGI: > 100 µM
[5]
  TGI: > 100 µM
[7]
  TGI: > 100 µM
[8]
  TGI: > 100 µM
[9]
  TGI: > 100 µM

## C/C(=N\NC(=S)N1CCN(c2ccccn2)CC1)c1ccccn1
[1]
  TGI: 14.5 µM
[2]
  GI50: < 0.0161 µM
  TGI: 12.9 µM
[4]
  GI50: 0.00217 µM
  TGI: 8.52 µM
[5]
  TGI: 18.5 µM
[6]
  GI50: 0.252 µM
  TGI: 15.3 µM
[7]
  TGI: 16.2 µM
[8]
  GI50: 1.67 µM
  TGI: 15 µM
[10]
  TGI: 14.4 µM
[9]
  GI50: 0.301 µM
  TGI: 15.5 µM

## COc1cc(CC(C)=O)cc(OC)c1
[1]
  TGI: > 100 µM
[2]
  TGI: > 100 µM
[3]
  TGI: > 100 µM
[4]
  TGI: > 100 µM
[5]
  TGI: > 100 µM
[6]
  TGI: > 100 µM
[7]
  TGI: > 100 µM
[8]
  TGI: > 100 µM

## COC(=O)Oc1nn(C(=O)OC)c(=O)c2ccccc12
[1]
  TGI: > 100 µM
[2]
  TGI: > 100 µM
[3]
  TGI: > 100 µM
[4]
  TGI: > 100 µM
[5]
  TGI: > 100 µM
[6]
  TGI: > 100 µM
[7]
  TGI: > 100 µM
[10]
  TGI: > 100 µM
[9]
  TGI: > 100 µM

## OCC1OC2c3ccccc3COC2C1OCc1ccccc1 (centres undefined)
[1]
  TGI: > 100 µM
[2]
  TGI: > 100 µM
[3]
  TGI: > 100 µM
[4]
  TGI: > 100 µM
[5]
  TGI: > 100 µM
[6]
  TGI: > 100 µM
[7]
  TGI: > 100 µM
[9]
  TGI: > 100 µM

## CN(C)C1CCN(Cc2ccc(NC(=O)c3cncc(C#Cc4cnc(N)c5ncccc45)c3)cc2C(F)(F)F)CC1
[1]
  GI50: 5.08 µM
  TGI: 13.7 µM
[2]
  GI50: 1.03 µM
  TGI: 2.22 µM
[4]
  GI50: 0.828 µM
  TGI: 1.51 µM
[5]
  GI50: 8.94 µM
  TGI: 18.1 µM
[6]
  GI50: 9.21 µM
  TGI: 20.2 µM
[7]
  GI50: 1.32 µM
  TGI: 4.03 µM
[8]
  GI50: 5.65 µM
  TGI: 14.1 µM
[10]
  GI50: 8.01 µM
  TGI: 20 µM
[9]
  GI50: 8.44 µM
  TGI: 15.6 µM

## COc1cc2c(c(O)c1Cl)C(=O)c1c(O)cc(C[C@H](C)O)cc1[C@H]2[C@H]1c2cc(C[C@H](C)O)cc(O)c2C(=O)c2c1cc(OC)c(Cl)c2O
[1]
  TGI: 75 µM and > 100 µM
[5]
  TGI: 75 µM and > 100 µM
[6]
  TGI: 75 µM and > 100 µM
[7]
  TGI: 75 µM and > 100 µM
[10]
  TGI: 13.2 µM and > 100 µM
[9]
  TGI: 11.4 µM and > 100 µM

## COc1cc(-c2cc3ncccc3c3nc(OCCN(C)C)c4cccnc4c23)cc(OC)c1OC
[1]
  GI50: 0.502 µM
  TGI: 23.4 µM
[2]
  GI50: 0.391 µM
  TGI: 1.66 µM
[4]
  GI50: 0.281 µM
  TGI: 1.54 µM
[5]
  GI50: 0.581 µM
  TGI: 3.09 µM
[6]
  GI50: 0.727 µM
  TGI: 3.1 µM
[7]
  GI50: 0.324 µM
  TGI: 15.2 µM
[10]
  GI50: 0.275 µM
  TGI: 1.26 µM
[9]
  GI50: 0.468 µM
  TGI: 3.14 µM

## CC#C[C@]1(O)CCC2[C@@H]3CCC4=CC(=O)CCC4=C3[C@@H](c3ccc(N(C)C)cc3)C[C@@]21C (some centres undefined)
[1]
  TGI: > 100 µM
[2]
  TGI: 35.2 µM
[3]
  TGI: 24.1 µM
[4]
  TGI: > 100 µM
[5]
  TGI: 52 µM
[7]
  TGI: > 100 µM
[10]
  TGI: 33.7 µM
[9]
  TGI: 33 µM

## COC(=O)Cc1c([C@@]2(C)CCCC(C)(C)C2)ccc2c1C(=O)OC2
[1]
  TGI: 24.1 µM
[2]
  TGI: 29.7 µM
[3]
  TGI: 26.4 µM
[4]
  TGI: 48.2 µM
[5]
  TGI: 23 µM
[7]
  TGI: > 100 µM
[8]
  TGI: 41.8 µM
[10]
  TGI: 24.2 µM

## Nc1nc(NCCOCP(=O)(O)O)c([N+](=O)[O-])c(=O)[nH]1
[2]
  TGI: > 100 µM
[3]
  TGI: > 100 µM
[4]
  TGI: > 100 µM
[5]
  TGI: > 100 µM
[6]
  TGI: > 100 µM
[7]
  TGI: > 100 µM
[10]
  TGI: > 100 µM

## CCC12CCCN(Cc3ccccc3)C1c1c(n(C)c3ccccc13)C(CO)C2 (centres undefined)
[1]
  TGI: 78.1 µM
[2]
  TGI: 134 µM
[3]
  TGI: 75.2 µM
[5]
  TGI: 81.2 µM
[6]
  TGI: 121 µM
[7]
  TGI: 89.2 µM
[10]
  TGI: 82 µM
[9]
  TGI: > 257 µM

## CCc1ccccc1NC(=O)C(C#N)C1=C(Cl)C(=O)c2ccccc2C1=O (centres undefined)
[1]
  TGI: 28.7 µM
[2]
  TGI: 29.8 µM
[3]
  TGI: 31.1 µM
[4]
  TGI: 29.9 µM
[5]
  TGI: 27.9 µM
[7]
  TGI: 44 µM
[10]
  TGI: 26.9 µM
[9]
  TGI: 45.6 µM

## CN1C(=O)CC2(C)c3cc(O)cc(Br)c3N(C)C12 (centres undefined)
[1]
  TGI: > 100 µM
[2]
  TGI: > 100 µM
[3]
  TGI: > 100 µM
[4]
  TGI: > 100 µM
[5]
  TGI: > 100 µM
[6]
  TGI: > 100 µM
[7]
  TGI: > 100 µM
[8]
  TGI: > 100 µM
[10]
  TGI: > 100 µM

## Cc1nn(C(=O)c2ccccc2O)c2c1C(c1ccc(O)cc1O)SC(N)=N2 (centres undefined)
[1]
  TGI: > 10 µM
[2]
  TGI: > 10 µM
[3]
  TGI: > 10 µM
[4]
  TGI: > 10 µM
[5]
  TGI: > 10 µM
[7]
  TGI: > 10 µM
[8]
  TGI: > 10 µM
[10]
  TGI: > 10 µM
[9]
  TGI: > 10 µM

## COc1cc2c(cc1OC)C(C#N)N(C(=O)c1ccccc1)C=C2OC(=O)c1ccccc1 (centres undefined)
[1]
  TGI: > 100 µM
[2]
  TGI: 74.7 µM
[3]
  TGI: > 100 µM
[4]
  TGI: 43.6 µM
[5]
  TGI: > 100 µM
[6]
  TGI: > 100 µM
[7]
  TGI: > 100 µM
[10]
  TGI: > 100 µM

## O=C(COc1ccccc1Cl)N1N=C(c2ccccc2)CC1(O)c1ccccc1 (centres undefined)
[1]
  TGI: 33.6 µM
[2]
  TGI: 23.9 µM
[3]
  TGI: 33.9 µM
[4]
  TGI: 55.7 µM
[5]
  TGI: 25.6 µM
[6]
  TGI: 33.6 µM
[7]
  TGI: 79.1 µM
[10]
  TGI: 30.4 µM
[9]
  TGI: 91.8 µM

## CC(C)(C)N/N=C(\C(=O)Nc1cccc(Cl)c1)C1C(=O)Nc2ccccc2S1=O (centres undefined)
[1]
  TGI: > 100 µM
[3]
  TGI: > 100 µM
[4]
  TGI: > 100 µM
[5]
  TGI: > 100 µM
[6]
  TGI: > 100 µM
[7]
  TGI: > 100 µM
[10]
  TGI: > 100 µM
[9]
  TGI: > 100 µM

## Cn1c(-c2ccc(-c3cc(-c4cccs4)c(-c4cccs4)n3C)cc2)cc(-c2cccs2)c1-c1cccs1
[1]
  TGI: > 100 µM
[2]
  TGI: > 100 µM
[3]
  TGI: > 100 µM
[4]
  TGI: > 100 µM
[5]
  TGI: > 100 µM
[6]
  TGI: > 100 µM
[7]
  TGI: > 100 µM
[9]
  TGI: > 100 µM
